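Cells were grown in 96-well plates and exposed to each compound for 48 hours at five concentrations; endpoints were interpolated linearly between bracketing concentrations, or set to the highest concentration if not reached. GI50 marks 50% less growth.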 Activity calls are given as the source filed them. Cut-off read from the data, not from the text of the source: active = GI50 up to about 1.1 µM and inactive = higher. A value given as a limit tells only on which side of the number the result lay.

The text below walks through data of ChEMBL document CHEMBL1201862, “PubChem BioAssay data set” (2004).

Holding throughout (assay): growth of human tumour cells (NCI), 48 h
In test [1] the test system is MDA-N.
Test [2] deals with TK-10.
Test [3] deals with HOP-92.
The subject of test [4] is UACC-257.
The subject of test [5] is KM12.
The test system of test [6] is COLO 205.
Test [7] deals with EKVX.
For test [8], the system named is OVCAR-4.
Test [9] concerns MOLT-4.
Test [10] relates to PC-3.
Test [11] deals with UO-31.
For test [12], the system named is LOX IMVI.
The subject of test [13] is SF-295.
The subject of test [14] is HCT-15.
For test [15], the system named is NCI-H226.
Test [16] has as its system SK-MEL-2.
The test system of test [17] is MDA-MB-231.
In test [18] the test system is NCI-H522.
Test [19] relates to Hs-578T.

In the case of `COC(=O)C1(C(=O)OC)N=C(C)OC1c1ccccn1` (stereo not given), the GI50 in test [1], in [2], in test [3], in [4], in test [5] and in test [6] was > 100 µM (inactive) in each case. The GI50 in test [7], in test [8], in test [9], in test [10], in test [11] and in test [12] was > 100 µM (inactive) each time. The GI50 in [13] is > 100 µM (inactive); in test [14], above 100 µM; in [15], > 100 µM (inactive); in test [16] it was > 100 µM (inactive).

With `Cc1cc(-c2no[n+]([O-])c2-c2cc(C)sc2S(C)(=O)=O)c(S(C)(=O)=O)s1`, the GI50 in test [2], in [3], in test [5], in [17], in test [6] and in test [7] was > 100 µM (inactive) in each case. In addition, the GI50 in [8] was > 100 µM (inactive); in test [9], > 100 µM (inactive); in test [10] it was > 100 µM (inactive); in test [18], 87.5 µM (inactive); in test [11], > 100 µM (inactive); in test [12], > 100 µM (inactive). Also, the GI50 in [13] is > 100 µM (inactive); in [14], above 100 µM; in test [15], > 100 µM (inactive); in test [16] it was > 100 µM (inactive); in test [19] it was > 100 µM (inactive).

In the case of `Oc1[nH]c(Nc2cccc(Cl)c2)nc2ncnc1-2`, the GI50 in test [2] is > 100 µM (inactive); in test [3], 83 µM (inactive); in [4], > 100 µM (inactive); in test [5] it was > 100 µM (inactive); in test [17], 30.8 µM (inactive); in [6], > 100 µM (inactive). For the same molecule, the GI50 in test [7] is > 100 µM (inactive); in [8] it was > 100 µM (inactive); in test [9] it was 38.6 µM (inactive); in test [10], 25.4 µM (inactive); in test [18], > 100 µM (inactive); in test [11], > 100 µM (inactive). Moreover, the GI50 was 80.7 µM (inactive) in [12]; > 100 µM (inactive) in [13]; above 100 µM in test [14]; > 100 µM (inactive) in [15]; 86.3 µM (inactive) in test [16]; 68.5 µM (inactive) in [19].

As to `Cc1ccccc1OC(C)C(=O)NN1C(=O)CC(=O)N(c2ccccc2)C1=S` (stereo not given), the GI50 was 63 µM (inactive) in [2]; 37.3 µM (inactive) in [3]; 58.3 µM (inactive) in [4]; 75.5 µM (inactive) in test [5]; > 100 µM (inactive) in test [17]; 68.4 µM (inactive) in test [6]. Also, the GI50 was 75.7 µM (inactive) in test [7]; > 100 µM (inactive) in [8]; 34 µM (inactive) in test [9]; 72.1 µM (inactive) in [10]; 77.4 µM (inactive) in test [18]; 35.8 µM (inactive) in test [11]. The GI50 is 54.3 µM (inactive) in test [12]; 46.3 µM (inactive) in test [13]; 51.3 µM in test [14]; 41.9 µM (inactive) in test [15]; 72.9 µM (inactive) in test [16]; > 100 µM (inactive) in test [19].

`O=c1oc2ccc3ccccc3c2cc1-c1nnc(Nc2ccccc2)s1`: the GI50 is 16.9 µM (inactive) in [2]; > 100 µM (inactive) in [4]; 50.7 µM (inactive) in [5]; 18.2 µM (inactive) in [17]; 46.5 µM (inactive) in test [7]; 20 µM (inactive) in test [8]. The GI50 in test [9] is 0.757 µM (active); in test [10], 17.1 µM (inactive); in test [18], 0.986 µM (active); in test [11], 21.4 µM (inactive); in [13], 65.3 µM (inactive); in [14], 51.6 µM. Also, the GI50 in test [16] was 18.9 µM (inactive); in test [19], 65 µM (inactive).

As to `O=C(CC(Cl)=C(Cl)Cl)c1ccccc1`, the GI50 in test [2] is > 100 µM (inactive); in test [3] it was > 100 µM (inactive); in test [4] it was 27.4 µM (inactive); in [5], 53.1 µM (inactive); in test [17] it was 34.8 µM (inactive); in test [6], 28.8 µM (inactive). Also, the GI50 in test [8] was 17.5 µM (inactive); in [9], 12.3 µM (inactive); in [10], > 100 µM (inactive); in [18], 23.9 µM (inactive); in test [11], 80.2 µM (inactive); in [12], 15 µM (inactive). Moreover, the GI50 in test [13] was > 100 µM (inactive); in [14], 24.8 µM; in test [15], 28.9 µM (inactive); in test [16] it was > 100 µM (inactive); in [19], > 100 µM (inactive).

`O=S(=O)(Nc1ccc2ccc3cccc4ccc1c2c34)c1ccccc1`: the GI50 in test [2] is 38.2 µM (inactive); in test [3], 4.84 µM (inactive); in test [4], 58.7 µM (inactive); in [5] it was 9.98 µM (inactive); in test [17], 30.8 µM (inactive); in [6], 29.5 µM (inactive). The GI50 is > 100 µM (inactive) in [7]; > 100 µM (inactive) in [8]; 8.77 µM (inactive) in [9]; 14.3 µM (inactive) in test [10]; 4.27 µM (inactive) in test [18]; 35.1 µM (inactive) in [11]. The GI50 was 40.6 µM (inactive) in [12]; 10.4 µM (inactive) in test [13]; 12.9 µM in test [14]; 19.4 µM (inactive) in [15]; 70.5 µM (inactive) in [16]; 28.1 µM (inactive) in test [19].

For the molecule `O=C(/C=N/c1ccccc1C(=O)[O-])c1cccs1.O=C(/C=N/c1ccccc1C(=O)[O-])c1cccs1.[Zn+2]`, the GI50 was > 100 µM (inactive) in [2]; 19.6 µM (inactive) in test [3]; 20.3 µM (inactive) in test [4]; > 100 µM (inactive) in test [5]; > 100 µM (inactive) in [6]; 34 µM (inactive) in test [9]. In addition, the GI50 in test [18] was 21.1 µM (inactive); in [11], > 100 µM (inactive); in [12], 27.4 µM (inactive); in test [13], 20.4 µM (inactive); in [14] it was above 100 µM; in test [16], 25.8 µM (inactive).

Take `COc1cc2c(cc1O)-c1c(cnn1-c1ccc([N+](=O)[O-])cc1)CCC2`: the GI50 is 8.83 µM (inactive) in test [2]; 3.75 µM (inactive) in [3]; 15.5 µM (inactive) in test [4]; 12.6 µM (inactive) in [5]; 12 µM (inactive) in test [17]; 20.3 µM (inactive) in [6]. For the same molecule, the GI50 in [7] is 28.1 µM (inactive); in [8], 19.1 µM (inactive); in test [9], 1.02 µM (active); in test [10], 10.8 µM (inactive); in test [18], 11.6 µM (inactive); in test [12], 12.6 µM (inactive). Further, the GI50 is 10.9 µM (inactive) in test [13]; 14 µM in test [14]; 15.7 µM (inactive) in test [15]; 17.4 µM (inactive) in [16]; 19.7 µM (inactive) in test [19].

Turning to `CCOc1cc(/C=C2/C(C)=NN(c3cccc(Cl)c3)/C2=N/c2nc3ccccc3s2)ccc1O`, the GI50 in test [2] was 36.9 µM (inactive); in test [3], 23.2 µM (inactive); in test [4] it was 23.7 µM (inactive); in test [17] it was 24.7 µM (inactive); in [7], 38.4 µM (inactive); in [9] it was 32.7 µM (inactive). Also, the GI50 in test [10] was 19.8 µM (inactive); in test [18], 21.9 µM (inactive); in [11] it was 19.4 µM (inactive); in [12], 35.9 µM (inactive); in test [13], 24.8 µM (inactive); in test [14], 21.8 µM. For the same molecule, the GI50 in test [15] is 23.7 µM (inactive); in test [16] it was 21.1 µM (inactive); in test [19] it was 29.7 µM (inactive).

As to `CC1=NN(c2nc(N)nc(CS(C)(=O)=O)n2)C(C)(C)C1`, the GI50 in [2], in test [3], in test [4], in [5], in [17] and in [6] was > 100 µM (inactive) throughout. Further, the GI50 in [7], in test [8], in [9], in [10], in test [11] and in test [12] was > 100 µM (inactive) in each case. The GI50 in test [13] is > 100 µM (inactive); in test [14], above 100 µM; in [16] it was > 100 µM (inactive); in test [19], > 100 µM (inactive).

For `CNc1ncnc2c1nnn2C`, the GI50 in test [1], in [2], in test [3], in test [4], in [5] and in test [6] was > 100 µM (inactive) in each case. Also, the GI50 in test [7], in test [8], in test [9], in test [10], in test [18] and in test [11] was > 100 µM (inactive) in each case. Also, the GI50 in [12] is > 100 µM (inactive); in [13], > 100 µM (inactive); in test [14], above 100 µM; in test [15] it was > 100 µM (inactive); in test [16], > 100 µM (inactive).
